From PubChem BioAssay (NCI) come the findings set out here.

SMILES strings stand for the structures. Where “and” joins values, the source holds several entries; their conditions need not be identical. Identical values can stand only once.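 Compound exposure: 48 hours, 5 concentrations, 96-well plates. At the GI50, growth is halved. TGI denotes the concentration required for complete inhibition of growth.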

Experiment in all cases: growth of human tumour cells (NCI), 48 h
Assay [1] concerns DLD-1 colon.
The subject of assay [2] is DMS 114 small cell lung.
Assay [3] deals with DMS 273 small cell lung.
The subject of assay [4] is HOP-18 NSCLC.
The test system of assay [5] is M19-MEL melanoma.
Assay [6] has as its system RXF-631 renal.
Assay [7] deals with MDA-N.
Assay [8] has as its system SNB-78 CNS.
Assay [9] deals with XF 498 CNS.

`COc1ccc(CN2C(=O)C(Cc3cc(OC)c(OC)c(C)c3OC)N(C(=O)OC(C)C)C(=O)/C2=C/c2cc(OC)c(OC)c(C)c2OC)cc1` (stereo unspecified): the TGI in [1], in [2], in assay [3], in [4], in assay [5] and in [6] was over 100 µM each time.
Regarding `CCOC(=O)C1c2[nH]c3ccccc3c2CCN1C(=O)c1ccco1` (stereo unspecified), in assay [7], the TGI is over 10 µM.
As to `O=C1OC(c2ccccc2)C2CC3CC4(CCC3CN12)OCCO4` (stereo unspecified), the TGI in assay [3], in [6], in assay [8] and in assay [9] was over 100 µM in each case.
On to `C[C@]12CCC3[C@@H](C[C@H]4OC(=O)[C@@]35CCC(=O)C=C45)C1CCC2=O` (stereo partly specified), for which the TGI in assay [1], in assay [2], in assay [4], in assay [5] and in assay [9] was over 100 µM each time.
The molecule `CC(=O)Oc1ccc2ccc(=O)oc2c1OC(C)=O` had a TGI in [7] of over 100 µM.
The molecule `CCOc1cc(C=O)c2c(ccc3ccc(OC)c(OC)c32)c1OC` came in with a TGI in assay [7] of over 100 µM.
`CN(C)c1ccccc1CC(c1c[nH]c2ccccc12)c1c[nH]c2ccccc12`: the TGI in assay [1] was 30.4 µM; in assay [2], 20.4 µM; in assay [3], 27.9 µM; in assay [5] it was 29.1 µM; in assay [8], 32.5 µM; in assay [9], 31.5 µM.
For the molecule `Cc1cc(C)nc(NS(=O)(=O)c2ccc(NC(=O)c3cccc4c(Nc5ccc(S(=O)(=O)Nc6nc(C)cc(C)n6)cc5)c5ccccc5nc34)cc2)n1`, the TGI was 54.2 µM in [1]; 38.9 µM in assay [3]; 29.7 µM in assay [4]; over 100 µM in assay [5]; 42.6 µM in assay [6]; over 100 µM in assay [8]. This molecule returned a TGI in assay [9] of 79.7 µM.
Take `NC(=O)c1nnn(Cc2cc(Cl)c(C(=O)c3ccc(Cl)cc3)c(Cl)c2)c1N`: the GI50 is 12.7 µM in assay [1]; 3.36 µM in [2]; 5.77 µM in assay [3]; 21.7 µM in assay [4]; 14.1 µM in assay [5]; 19 µM in assay [8]. Further, the GI50 in [9] is 10.8 µM. The TGI in assay [1] was > 9.09 µM and 30.8 µM; in assay [2], > 9.09 µM and 23.3 µM; in assay [3] it was > 9.09 µM and 21.2 µM; in [4], > 9.09 µM and 36.4 µM; in [5] it was > 9.09 µM and 27.4 µM; in assay [7], over 46.9 µM. In addition, the TGI is 53.9 µM in assay [6]; > 9.09 µM and 52.2 µM in [8]; > 9.09 µM and 22.9 µM in assay [9].
Molecule `CC1(C)CC(=O)C(C(c2cccc(O)c2O)C2C(=O)CC(C)(C)CC2=O)C(=O)C1` gave a TGI in assay [7] of over 100 µM.
Turning to `O=C(O)CNC(=O)c1ccccc1O`, the TGI in [7] was over 100 µM.
Turning to `O=c1c2cc(Br)ccc2[nH]c(=S)n1-c1ccc(Br)cc1`, the TGI in [1], in assay [2], in [4], in [5] and in assay [8] was over 100 µM each time.
`Cc1cc2cc(Cl)ccc2nc1C(=O)c1ccccc1`: the TGI in assay [1], in assay [2], in assay [3], in [4], in [5] and in assay [6] was over 100 µM in each case. Besides, the TGI in assay [8] and in assay [9] was over 100 µM in each case.
On to `COc1ccc2nc3cccc([N+](=O)[O-])c3c(NCCN(CCO)CCO)c2c1`, for which, in [7], the GI50 is 0.023 µM and the TGI was 0.0769 µM.
Take `O=C1C(c2ccc([N+](=O)[O-])cc2)=[N+]([O-])c2ccccc21`: the TGI in assay [1] was over 100 µM; in [2], 27.1 µM; in [4], 26.5 µM; in assay [5], 41.5 µM; in assay [8] it was 61.1 µM.
As for `O=C(CCc1nnc2s/c(=C\c3ccc4c(c3)OCO4)c(=O)n12)Nc1cc(Cl)ccc1Cl`, the TGI in assay [1], in assay [2], in [3], in [4], in assay [5] and in assay [6] was over 100 µM throughout. Further, the TGI in assay [8] and in assay [9] was over 100 µM throughout.
`CCOC(=O)NC(=O)c1cn(CCCCCOC(=O)NCCCCCCNC(=O)OCCCCCn2cc(C(=O)NC(=O)OCC)c(=O)[nH]c2=O)c(=O)[nH]c1=O`: the TGI in assay [1], in [2], in assay [3], in assay [4], in assay [5] and in assay [8] was over 100 µM in each case.
With `O=C(c1ccccn1)c1nnn2ccccc12`, the TGI in assay [7] is over 100 µM.
For the molecule `O=c1oc2c3ccc4ccccc4c3n(CCN3CCOCC3)c2c2ccccc12`, the TGI in [1], in assay [2], in assay [4] and in assay [5] was over 100 µM in each case.
For the molecule `COc1ccc2c(c1)CCc1cnn(C3OC(COC(C)=O)C(OC(C)=O)C(OC(C)=O)C3OC(C)=O)c1-2` (stereo unspecified), the TGI in [1], in assay [2], in assay [3], in assay [5], in [6] and in [8] was over 100 µM each time. In addition, the TGI in [9] amounted to 52.1 µM.
On to `COC(=O)CCC(=O)CC(=O)C(=O)Nc1ccc(F)cc1`, for which the TGI in assay [1], in [2], in assay [3], in [4], in assay [5] and in assay [8] was over 100 µM throughout.
